Experimental data from US8383647B2, “Quinoline derivative” (Takeda Pharmaceutical Company Limited, priority 2009, dated 2013).
“And” between values parts separate entries of the source, which are not always exact repeats. Equal entries are not always repeated. Marks after values point to notes of the source that are not given here.

Columns and labels:
[1] = tested on: Male F344/Jcl rats fed on high-fat diet; assay: Evaluation of anorectic effect using male F344/Jcl rats fed on high-fat diet; format: in vivo; settings: 10 mg/kg by gavage, two administrations; food intake from initial administration to 48 hr; relative to control group; obese rat model
Protocol: Male F344/Jcl rats (42-week-old) loaded with a high-fat diet (Research Diets: D12451) from 5 weeks of age were used. From 2 weeks before the start of experiment, the rats were independently raised, a powder high-fat diet (Research Diets: D12451M) was given, tap water (0.5 mL) was administered for acclimation, and thereby the rats were habituated. The food intake from 14:00 the day before the start of experiment to 9:00 the next day was measured, and the rats were grouped based on the food intake and the body weight of the previous day as indices. On the day of the start of experiment and the next day at 16:00, 0.5% methylcellulose solution was administered by gavage to the control group, and 0.5% methylcellulose suspension (10 mg/kg) of the compound was administered by gavage to the compound administration group at 2 mL/kg (6 per group for both control group and compound administration group). The food intake from the initial administration to 48 hr later was measured. The food intake inhibition rate of each compound administration group to the control group was calculated.

HERG = target: T1, HERG (Homo sapiens, UniProt Q12809); assay: Evaluation of HERG inhibitory activity (whole-cell patch clamp, HERG.T.HEK cells); format: cell-based; settings: peak tail current
T1 construct: host or cells: HERG.T.HEK (HEK cells, Geneticin-selected)
Description: MEM medium, MEM nonessential amino acid solution, sodium pyruvate solution and G418 sulfate solution (Geneticin) were purchased from Invitrogen Corporation (Carlsbad, Calif.). Bovine serum albumin (BSA, Fatty Acid Free) was a product of Wako Pure Chemical Industries, Ltd. (Osaka, Japan). Fetal bovine serum (FCS) was a product of Trau Scientific Ltd. (Melbourne, Australia).
As HERG expression cell HERG.T.HEK, the cell obtained from Wisconsin ALUMNI Research Foundation was used. HERG.T.HEK was maintained and passaged at 37° C. in the presence of 5% CO2 using an MEM medium containing 10% FCS, 1 mM MEM nonessential amino acid, 1 mM sodium pyruvate and 500 μg/ml Geneticin.
80-90% confluent cells were collected by a trypsin treatment and plated on an IVF dish (Falcon, Franklin Lakes, N.J.). After 2-3 hr, cells were adhered to a glass electrode (resistance value 2-3 MΩ) filled with an electrode internal fluid (7 mM NaCl, 130 mM KCl, 1 mM MgCl2, 5 mM HEPES, 5 mM EGTA, 5 mM ATP-Na: pH 7.2) while perfusing with an extracellular fluid (137 mM NaCl, 4 mM KCl, 1 mM MgCl2, 1.8 mM CaCl2, 10 mM HEPES, 11 mM dextrose: pH 7.4), using a patch clamp amplifier AXOPATCH 200B (Axon instruments, Foster City, Calif.), whereby formation of whole-cell configuration and stimulation by voltage clamp protocol were performed (holding potential −75 mV, primary voltage 10 mV: 0.5 sec, secondary voltage −40 mV: 0.5 sec, stimulation frequency 5 sec (Example 31 and Example 50) or 10 sec (Comparative Example 1 and Comparative Example 2). A preliminary stimulation was applied and the HERG electric current value (peak tail current) was measured when the electric current waveform was stabilized.
For measurement of the HERG electric current with addition of the test compound, the cells were first perfused with the extracellular fluid and, when the waveform was stabilized, the cells were perfused with an extracellular fluid containing 10 μm of a test compound. When the electric current waveform was stabilized under respective perfuse conditions, the HERG electric current was measured.
The HERG electric current inhibitory rate (%) of the test compound was calculated with the HERG electric current value without addition of the test compound as 100%.

human SLC-1 = human SLC-1 (Homo sapiens, UniProt Q99705); assay: MCH receptor antagonistic activity (inhibitory activity, Experimental Example 1); format: biochemical
rat SLC-1 = rat SLC-1 (Rattus norvegicus, UniProt P97639); assay: as above; format: biochemical
HepG2 cells = assay: Evaluation of PLsis (NBD-PE uptake); format: cell-based; settings: 24 hr exposure, relative to 10 μM Amiodarone, maximum value per unit concentration
Protocol: DMEM medium, L-glutamine, penicillin-streptomycin, pyruvic acid, and N-(7-nitrobenz-2-oxa-1,3-diazol-4-yl)-1,2-hexadecanoyl-sn-glycero-3-phosphoethanolamine triethylammonium salt (NBD-PE) were purchased from Invitrogen Corporation. As bovine serum albumin (BSA), a product of Thermo Trace Ltd. (Melbourne, Australia) was used, and as Amiodarone, a product of ICN (Costa Mesa, Calif.) was used. A test compound was used in the form of a 10 mM DMSO solution.
FBS was added at a final concentration of 5 vol % to DMEM medium supplemented with L-glutamine, pyruvic acid and penicillin-streptomycin and subjected to the experiment. Culture was performed using 5% carbon dioxide gas-95% air as a gas phase in a CO2 incubator at 37° C. HepG2 cells were suspended in a culture medium at 50×10^4 cells/mL, plated in a 96 well plate at 50 μL/well and precultured for 24 hr. After preculture, the culture medium was removed, a culture medium containing 60 μm NBD-PE was added at 50 μL/well, and a culture medium containing 0, 6 μM or 20 μM test compounds were each added at 50 μL/well to HepG2 cells, and the cells were cultured for 24 hr. As a positive control, Amiodarone was used at a final concentration of 10 μM.
After exposure to the test compound for 24 hr, the fluorescence intensity (Ex. 485 nm, Em. 538 nm) of NBD-PE uptaken by the cells was measured by a fluorometer. The measurement value with addition of 0 μM test compound solution was subtracted as a blank, a relative value to the measurement value with addition of 10 μm Amiodarone was calculated, and the maximum value per unit concentration of the test compound was obtained as a phospholipidosis (PLsis) induction potential.

Chain of human SLC-1 (Q99705 whole entry): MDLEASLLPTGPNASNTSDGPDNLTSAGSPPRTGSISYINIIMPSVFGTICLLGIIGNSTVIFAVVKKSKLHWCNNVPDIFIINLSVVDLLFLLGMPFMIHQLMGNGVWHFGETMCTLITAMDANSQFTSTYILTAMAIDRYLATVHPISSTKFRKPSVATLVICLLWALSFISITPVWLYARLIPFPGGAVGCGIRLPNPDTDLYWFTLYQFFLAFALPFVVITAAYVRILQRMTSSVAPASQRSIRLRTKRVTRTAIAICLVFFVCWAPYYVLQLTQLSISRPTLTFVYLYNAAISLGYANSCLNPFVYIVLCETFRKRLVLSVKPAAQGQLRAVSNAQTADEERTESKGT
T1 sequence (Q12809 whole entry): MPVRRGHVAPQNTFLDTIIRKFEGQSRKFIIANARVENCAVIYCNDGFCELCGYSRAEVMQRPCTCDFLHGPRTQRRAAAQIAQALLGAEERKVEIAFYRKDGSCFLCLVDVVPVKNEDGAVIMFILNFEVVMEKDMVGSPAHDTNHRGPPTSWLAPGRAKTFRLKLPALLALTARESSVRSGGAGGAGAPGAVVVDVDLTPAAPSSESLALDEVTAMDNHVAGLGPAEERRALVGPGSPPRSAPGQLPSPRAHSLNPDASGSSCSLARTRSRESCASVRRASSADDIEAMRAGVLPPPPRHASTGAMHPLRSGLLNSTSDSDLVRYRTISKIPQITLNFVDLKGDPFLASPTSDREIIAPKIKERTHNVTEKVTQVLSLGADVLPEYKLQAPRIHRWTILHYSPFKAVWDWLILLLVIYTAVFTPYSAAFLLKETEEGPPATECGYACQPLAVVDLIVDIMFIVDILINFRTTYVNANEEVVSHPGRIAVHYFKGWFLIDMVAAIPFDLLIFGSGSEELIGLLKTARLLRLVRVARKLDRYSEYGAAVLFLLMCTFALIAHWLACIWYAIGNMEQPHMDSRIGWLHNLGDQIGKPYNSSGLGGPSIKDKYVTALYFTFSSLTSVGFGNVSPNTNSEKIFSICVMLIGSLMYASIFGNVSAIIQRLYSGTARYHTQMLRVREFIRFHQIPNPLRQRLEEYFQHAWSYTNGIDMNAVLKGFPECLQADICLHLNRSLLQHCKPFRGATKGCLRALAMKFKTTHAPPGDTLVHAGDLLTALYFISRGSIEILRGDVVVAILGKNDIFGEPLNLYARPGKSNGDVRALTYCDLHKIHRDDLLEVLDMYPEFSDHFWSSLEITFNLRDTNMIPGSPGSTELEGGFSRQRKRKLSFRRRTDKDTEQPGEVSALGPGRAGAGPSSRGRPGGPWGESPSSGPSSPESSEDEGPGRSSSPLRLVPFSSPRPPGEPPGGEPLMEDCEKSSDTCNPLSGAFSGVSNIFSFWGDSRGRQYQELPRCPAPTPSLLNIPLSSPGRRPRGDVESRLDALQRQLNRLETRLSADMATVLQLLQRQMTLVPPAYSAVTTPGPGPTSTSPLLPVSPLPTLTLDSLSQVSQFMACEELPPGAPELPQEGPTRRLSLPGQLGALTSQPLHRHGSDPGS
Chain of rat SLC-1 (P97639 whole entry): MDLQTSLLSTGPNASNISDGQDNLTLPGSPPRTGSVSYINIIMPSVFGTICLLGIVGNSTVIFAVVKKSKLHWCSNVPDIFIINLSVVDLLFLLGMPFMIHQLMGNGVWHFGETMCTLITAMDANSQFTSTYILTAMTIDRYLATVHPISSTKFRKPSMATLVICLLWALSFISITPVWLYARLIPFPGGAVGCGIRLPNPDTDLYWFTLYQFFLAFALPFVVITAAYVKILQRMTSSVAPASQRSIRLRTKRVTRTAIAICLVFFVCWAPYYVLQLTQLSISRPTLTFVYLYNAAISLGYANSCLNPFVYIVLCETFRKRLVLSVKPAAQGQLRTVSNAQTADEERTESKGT

Structure (SMILES)	food intake inhibition rate (%) [1]	HERG electric current inhibitory rate (%) of 10 μM compound (HERG) [%]	melting point	IC50 (human SLC-1) [nM]	IC50 (rat SLC-1) [nM]	PLsis induction potential (HepG2 cells)
Cc1c(NC(=O)c2ccc(OC[C@@H]3CCCO3)cc2)ccc2cc(CNC3CCOCC3)cnc12 [Example 31, N-{8-methyl-3-[(tetrahydro-2H-pyran-4-ylamino)methyl]quinolin-7-yl}-4-[(2S)-tetrahydrofuran-2-ylmethoxy]benzamide]	24.8*** %	9.8	158 to 159 °C	3.1	4.3	1.7
Cc1c(NC(=O)c2ccc(OC[C@@H]3CCCO3)cc2)ccc2cc(CN[C@H]3CC[C@](C)(O)CC3)cnc12 [Example 50, N-(3-{[(trans-4-hydroxy-4-methylcyclohexyl)amino]methyl}-8-methylquinolin-7-yl)-4-[(2S)-tetrahydrofuran-2-ylmethoxy]benzamide]	30.3*** %	2.1	165 °C and 169 °C	2.9	3.9	1.4
